Assay results as given in publication doi:10.1101/2021.04.08.439011v1 (biorxiv, 2021).

Key:
Details in all cases: 1 µM; binder
ACVR1B = ACVR1B (Homo sapiens, UniProt P36896)
ACVR2A = ACVR2A (Homo sapiens, UniProt P27037)
CDK4 = CDK4 (Homo sapiens, UniProt P11802)
CSNK1E = CSNK1E (Homo sapiens, UniProt P49674)
EPHA2 = EPHA2 (Homo sapiens, UniProt P29317)
HUNK = HUNK (Homo sapiens, UniProt P57058)
IKK-beta = IKK-beta (Homo sapiens, UniProt O14920)
ITK = ITK (Homo sapiens, UniProt Q08881)
MAP4K3 = MAP4K3 (Homo sapiens, UniProt Q8IVH8)
MAP4K5 = MAP4K5 (Homo sapiens, UniProt Q9Y4K4)
Sequence of MAP4K5 (Q9Y4K4 whole entry): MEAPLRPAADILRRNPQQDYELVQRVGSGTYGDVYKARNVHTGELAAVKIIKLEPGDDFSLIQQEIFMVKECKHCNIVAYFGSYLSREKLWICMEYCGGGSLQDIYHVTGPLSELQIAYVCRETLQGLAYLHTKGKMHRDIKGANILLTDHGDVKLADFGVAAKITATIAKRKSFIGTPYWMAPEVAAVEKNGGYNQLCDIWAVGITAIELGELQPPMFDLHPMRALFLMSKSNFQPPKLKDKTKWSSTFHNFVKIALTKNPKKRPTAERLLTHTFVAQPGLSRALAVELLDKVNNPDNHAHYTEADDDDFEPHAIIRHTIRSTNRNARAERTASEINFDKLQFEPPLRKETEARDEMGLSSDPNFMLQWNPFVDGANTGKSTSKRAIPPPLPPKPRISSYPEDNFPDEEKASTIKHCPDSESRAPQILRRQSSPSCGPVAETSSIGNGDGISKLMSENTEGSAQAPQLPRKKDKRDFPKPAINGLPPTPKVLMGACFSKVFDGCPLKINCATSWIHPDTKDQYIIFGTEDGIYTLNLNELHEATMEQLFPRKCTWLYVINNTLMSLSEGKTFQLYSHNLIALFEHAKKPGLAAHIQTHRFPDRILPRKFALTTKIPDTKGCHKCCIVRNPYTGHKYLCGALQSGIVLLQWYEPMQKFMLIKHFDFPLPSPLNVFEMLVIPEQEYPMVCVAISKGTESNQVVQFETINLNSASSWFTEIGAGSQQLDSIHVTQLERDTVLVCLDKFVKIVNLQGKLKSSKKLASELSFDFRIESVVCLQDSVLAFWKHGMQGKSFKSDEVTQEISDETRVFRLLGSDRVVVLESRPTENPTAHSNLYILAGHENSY

MARK4 = MARK4 (Homo sapiens, UniProt Q96L34)
NLK = NLK (Homo sapiens, UniProt Q9UBE8)
PFTK1 = PFTK1 (Homo sapiens, UniProt O94921)
PHKG2 = PHKG2 (Homo sapiens, UniProt P15735)
PIK3CA(E542K) = PIK3CA(E542K) (Homo sapiens, UniProt P42336, E542K)
PRKCI = PRKCI (Homo sapiens, UniProt P41743)
SIK1 = SIK1 (Homo sapiens, UniProt P57059)
Sequence of SIK1 (P57059 whole entry): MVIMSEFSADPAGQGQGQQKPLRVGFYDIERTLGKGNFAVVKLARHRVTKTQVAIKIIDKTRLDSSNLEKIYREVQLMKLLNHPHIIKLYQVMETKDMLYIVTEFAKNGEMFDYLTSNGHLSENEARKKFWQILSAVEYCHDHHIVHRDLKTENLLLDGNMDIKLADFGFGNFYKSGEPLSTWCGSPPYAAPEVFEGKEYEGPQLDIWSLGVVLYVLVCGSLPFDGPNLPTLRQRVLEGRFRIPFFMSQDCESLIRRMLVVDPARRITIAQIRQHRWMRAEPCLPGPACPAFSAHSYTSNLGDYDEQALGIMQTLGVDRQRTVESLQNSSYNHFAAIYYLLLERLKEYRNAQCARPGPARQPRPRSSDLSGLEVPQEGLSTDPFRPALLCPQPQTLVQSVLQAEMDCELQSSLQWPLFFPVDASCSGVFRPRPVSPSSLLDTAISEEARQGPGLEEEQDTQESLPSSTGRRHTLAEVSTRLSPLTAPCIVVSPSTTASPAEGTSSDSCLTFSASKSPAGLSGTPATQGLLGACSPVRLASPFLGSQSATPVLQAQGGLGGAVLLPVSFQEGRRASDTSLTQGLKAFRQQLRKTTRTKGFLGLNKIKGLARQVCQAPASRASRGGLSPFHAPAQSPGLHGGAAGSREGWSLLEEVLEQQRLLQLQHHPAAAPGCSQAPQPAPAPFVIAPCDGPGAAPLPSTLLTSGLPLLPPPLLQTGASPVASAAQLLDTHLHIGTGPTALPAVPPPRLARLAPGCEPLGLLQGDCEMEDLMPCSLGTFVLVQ

SgK110 = SgK110 (Homo sapiens, UniProt P0C264)
Sequence of SgK110 (P0C264 whole entry): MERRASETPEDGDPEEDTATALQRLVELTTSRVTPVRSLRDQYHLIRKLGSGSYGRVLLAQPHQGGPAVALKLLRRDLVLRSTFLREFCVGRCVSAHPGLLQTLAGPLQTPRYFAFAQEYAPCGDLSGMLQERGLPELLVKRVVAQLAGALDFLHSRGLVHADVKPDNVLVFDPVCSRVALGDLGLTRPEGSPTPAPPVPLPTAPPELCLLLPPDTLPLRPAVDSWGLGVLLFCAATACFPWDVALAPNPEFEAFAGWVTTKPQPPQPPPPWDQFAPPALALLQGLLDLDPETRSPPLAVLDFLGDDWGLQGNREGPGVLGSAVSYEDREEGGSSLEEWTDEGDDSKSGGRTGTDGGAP

TEC = TEC (Homo sapiens, UniProt P42680)
Sequence of TEC (P42680 whole entry): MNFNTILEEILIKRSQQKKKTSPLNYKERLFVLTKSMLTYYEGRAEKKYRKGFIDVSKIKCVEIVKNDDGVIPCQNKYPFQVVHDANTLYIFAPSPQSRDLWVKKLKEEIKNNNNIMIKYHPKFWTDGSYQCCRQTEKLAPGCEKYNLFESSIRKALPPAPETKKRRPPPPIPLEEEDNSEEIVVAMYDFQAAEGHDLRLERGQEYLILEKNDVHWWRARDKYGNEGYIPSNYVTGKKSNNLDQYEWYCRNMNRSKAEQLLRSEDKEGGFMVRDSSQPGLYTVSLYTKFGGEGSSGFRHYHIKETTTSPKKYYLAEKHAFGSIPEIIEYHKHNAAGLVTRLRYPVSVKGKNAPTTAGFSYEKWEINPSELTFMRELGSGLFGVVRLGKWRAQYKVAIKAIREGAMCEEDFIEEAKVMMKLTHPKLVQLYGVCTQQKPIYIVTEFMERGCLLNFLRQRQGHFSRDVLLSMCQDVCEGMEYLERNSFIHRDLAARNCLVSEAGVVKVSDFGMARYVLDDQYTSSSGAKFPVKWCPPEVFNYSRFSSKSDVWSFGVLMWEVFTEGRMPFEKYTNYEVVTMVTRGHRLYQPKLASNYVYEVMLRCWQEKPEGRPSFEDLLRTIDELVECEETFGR

YANK3 = YANK3 (Homo sapiens, UniProt Q86UX6)
p38-gamma = p38-gamma (Homo sapiens, UniProt P53778)

Sequence of HUNK (P57058 whole entry): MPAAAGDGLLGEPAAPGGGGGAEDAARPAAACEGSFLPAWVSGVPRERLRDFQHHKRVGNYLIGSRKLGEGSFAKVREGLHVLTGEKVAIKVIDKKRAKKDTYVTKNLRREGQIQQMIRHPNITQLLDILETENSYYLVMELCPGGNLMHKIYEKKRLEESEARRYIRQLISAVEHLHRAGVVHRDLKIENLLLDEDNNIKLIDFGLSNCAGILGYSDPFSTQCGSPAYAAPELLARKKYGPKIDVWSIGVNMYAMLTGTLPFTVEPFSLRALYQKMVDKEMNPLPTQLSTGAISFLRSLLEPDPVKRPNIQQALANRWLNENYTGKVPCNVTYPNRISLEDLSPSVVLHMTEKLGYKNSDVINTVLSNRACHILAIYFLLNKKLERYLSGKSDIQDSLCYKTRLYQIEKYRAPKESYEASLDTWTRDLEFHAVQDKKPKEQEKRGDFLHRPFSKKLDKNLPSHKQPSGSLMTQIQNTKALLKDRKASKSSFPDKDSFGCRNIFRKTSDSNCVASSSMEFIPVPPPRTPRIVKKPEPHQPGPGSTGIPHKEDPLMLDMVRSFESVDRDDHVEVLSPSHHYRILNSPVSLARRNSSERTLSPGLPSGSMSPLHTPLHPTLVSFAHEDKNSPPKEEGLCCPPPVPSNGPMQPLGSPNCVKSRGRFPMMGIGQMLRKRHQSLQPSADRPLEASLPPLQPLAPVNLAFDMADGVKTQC
Sequence of CDK4 (P11802 whole entry): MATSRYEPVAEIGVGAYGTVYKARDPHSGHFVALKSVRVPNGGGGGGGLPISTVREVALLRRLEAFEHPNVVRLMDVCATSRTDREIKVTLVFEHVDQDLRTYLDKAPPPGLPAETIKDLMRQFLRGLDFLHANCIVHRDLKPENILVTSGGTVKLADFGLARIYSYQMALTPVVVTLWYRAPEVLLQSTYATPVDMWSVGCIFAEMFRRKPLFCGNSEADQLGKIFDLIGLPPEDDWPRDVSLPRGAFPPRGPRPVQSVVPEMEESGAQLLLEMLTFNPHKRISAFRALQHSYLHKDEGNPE
Sequence of EPHA2 (P29317 whole entry): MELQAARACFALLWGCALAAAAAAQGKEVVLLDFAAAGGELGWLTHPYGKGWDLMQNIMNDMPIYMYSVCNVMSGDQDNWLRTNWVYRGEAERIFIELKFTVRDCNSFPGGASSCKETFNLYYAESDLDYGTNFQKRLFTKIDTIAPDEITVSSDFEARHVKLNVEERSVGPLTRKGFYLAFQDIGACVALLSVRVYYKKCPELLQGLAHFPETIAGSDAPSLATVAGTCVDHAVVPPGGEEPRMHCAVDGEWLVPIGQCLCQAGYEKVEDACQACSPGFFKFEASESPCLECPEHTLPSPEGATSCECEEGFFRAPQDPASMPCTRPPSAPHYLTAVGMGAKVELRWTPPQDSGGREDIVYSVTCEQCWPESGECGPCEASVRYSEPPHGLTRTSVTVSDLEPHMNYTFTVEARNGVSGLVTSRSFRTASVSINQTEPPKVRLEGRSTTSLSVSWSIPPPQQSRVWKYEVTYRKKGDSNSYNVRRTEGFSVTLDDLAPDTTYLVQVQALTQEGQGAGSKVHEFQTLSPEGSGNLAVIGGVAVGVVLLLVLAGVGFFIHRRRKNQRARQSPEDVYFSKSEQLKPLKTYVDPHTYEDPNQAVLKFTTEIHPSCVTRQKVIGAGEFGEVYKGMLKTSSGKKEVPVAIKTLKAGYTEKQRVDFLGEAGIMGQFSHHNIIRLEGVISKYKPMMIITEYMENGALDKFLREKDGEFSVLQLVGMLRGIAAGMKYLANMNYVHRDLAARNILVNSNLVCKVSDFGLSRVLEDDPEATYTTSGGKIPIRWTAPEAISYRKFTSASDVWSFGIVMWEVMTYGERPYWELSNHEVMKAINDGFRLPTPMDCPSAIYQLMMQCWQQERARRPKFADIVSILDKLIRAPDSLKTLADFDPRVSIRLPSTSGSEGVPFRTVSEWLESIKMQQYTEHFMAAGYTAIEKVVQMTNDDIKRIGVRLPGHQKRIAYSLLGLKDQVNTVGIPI
Sequence of CSNK1E (P49674 whole entry): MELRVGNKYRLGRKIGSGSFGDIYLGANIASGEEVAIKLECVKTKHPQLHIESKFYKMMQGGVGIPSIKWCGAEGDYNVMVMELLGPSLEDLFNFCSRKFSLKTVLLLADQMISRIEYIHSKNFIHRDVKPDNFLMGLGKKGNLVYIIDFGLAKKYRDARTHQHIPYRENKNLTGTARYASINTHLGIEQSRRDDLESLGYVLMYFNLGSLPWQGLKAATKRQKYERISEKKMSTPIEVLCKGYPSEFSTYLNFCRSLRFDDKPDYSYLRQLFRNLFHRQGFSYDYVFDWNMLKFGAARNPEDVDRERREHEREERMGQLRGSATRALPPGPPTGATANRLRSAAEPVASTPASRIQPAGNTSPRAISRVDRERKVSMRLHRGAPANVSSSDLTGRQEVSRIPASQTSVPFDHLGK

## CNc1ncc2cc(-c3ccc(-c4cccc(C)n4)cc3Cl)c(=O)n(C[C@H]3OC[C@H](N)CO3)c2n1 [compound 6, G-5555]
ACVR1B
  Percent Control: 96%
ACVR2A
  Percent Control: 100%
CDK4
  Percent Control: 100%
CSNK1E
  Percent Control: 52%
EPHA2
  Percent Control: 100%
HUNK
  Percent Control: 100%
IKK-beta
  Percent Control: 80%
ITK
  Percent Control: 100%
MAP4K3
  Percent Control: 23%
MAP4K5
  Percent Control: 5.3%
MARK4
  Percent Control: 100%
NLK
  Percent Control: 17%
PFTK1
  Percent Control: 100%
PHKG2
  Percent Control: 100%
PIK3CA(E542K)
  Percent Control: 100%
PRKCI
  Percent Control: 63%
SIK1
  Percent Control: 0.6%
SgK110
  Percent Control: 71%
TEC
  Percent Control: 100%
YANK3
  Percent Control: 79%
p38-gamma
  Percent Control: 100%
